# According to patent US20220267380A1, “Glycopeptides Increasing Lipid Synthesis” (TFCHEM, priority 2019, published 2022):
# System: normal human dermal fibroblasts (NHDF)
# Assay: Gene expression in NHDF, full transcriptome analysis with Affymetrix U219 microarray
# Type: cell-based
# Details: NHDF
# [1] = relative expression adjusted to detection limit (<20), 10 mg/ml, 24 h
structure (smiles),measurement,setting,value
CC(=O)N(CCCC[C@H](N)C(=O)O)CC(F)(F)[C@]1(O)O[C@H](CO)[C@H](O)[C@H](O)[C@H]1O [Compound 4],effect of treatment of NHDF on lipid synthesis (transcriptional),,"up regulation of lipids synthesis, including fatty acids, cholesterol or ceramides"
same,"Fold change, CYP51A1///LRRD1","10 mg/ml, 24 h, vs control",2.38
same,"Fold change, DHCR7","10 mg/ml, 24 h, vs control",3.24
same,"Fold change, HMGCS1","10 mg/ml, 24 h, vs control",2.39
same,"Fold change, HSD17B7","10 mg/ml, 24 h, vs control",2.43
same,"Fold change, MVD","10 mg/ml, 24 h, vs control",2.77
same,"Fold change, SC5D","10 mg/ml, 24 h, vs control",2.06
same,"Fold change, SREBF1","10 mg/ml, 24 h, vs control",3.15
same,"Fold change, POR","10 mg/ml, 24 h, vs control, Affymetrix probe set 11716114_x_at",3.68
same,"Fold change, G6PD","10 mg/ml, 24 h, vs control, Affymetrix probe set 11716292_a_at",2.53
same,"Fold change, G6PD","10 mg/ml, 24 h, vs control, Affymetrix probe set 11716293_x_at",2.48
same,"Fold change, INSIG1","10 mg/ml, 24 h, vs control, Affymetrix probe set 11716338_a_at",2.73
same,"Fold change, INSIG1","10 mg/ml, 24 h, vs control, Affymetrix probe set 11716339_a_at",3.73
same,"Fold change, NSMAF","10 mg/ml, 24 h, vs control, Affymetrix probe set 11717214_s_at",2.01
same,"Fold change, LSS","10 mg/ml, 24 h, vs control, Affymetrix probe set 11717620_a_at",2.14
same,"Fold change, ASAH1","10 mg/ml, 24 h, vs control, Affymetrix probe set 11717722_s_at",2.54
same,"Fold change, EBP","10 mg/ml, 24 h, vs control, Affymetrix probe set 11717859_a_at",2.48
same,"Fold change, COL4A3BP","10 mg/ml, 24 h, vs control, Affymetrix probe set 11721537_a_at",2.46
same,"Fold change, COL4A3BP","10 mg/ml, 24 h, vs control, Affymetrix probe set 11721538_a_at",2.19
same,"Fold change, HTRA2","10 mg/ml, 24 h, vs control, Affymetrix probe set 11726630_a_at",2.06
same,"Fold change, LSS","10 mg/ml, 24 h, vs control, Affymetrix probe set 11731324_a_at",3.13
same,"Fold change, CLN3","10 mg/ml, 24 h, vs control, Affymetrix probe set 11731408_x_at",3.73
same,"Fold change, NSMAF","10 mg/ml, 24 h, vs control, Affymetrix probe set 11740559_a_at",2.34
same,"Fold change, NSMAF","10 mg/ml, 24 h, vs control, Affymetrix probe set 11740560_x_at",2.19
same,"Fold change, ASAH1","10 mg/ml, 24 h, vs control, Affymetrix probe set 11740580_at",2.44
same,"Fold change, ASAH1","10 mg/ml, 24 h, vs control, Affymetrix probe set 11740581_s_at",2.41
same,"Fold change, ASAH1","10 mg/ml, 24 h, vs control, Affymetrix probe set 11740582_a_at",3.46
same,"Fold change, ASAH1","10 mg/ml, 24 h, vs control, Affymetrix probe set 11743547_a_at",3.97
same,"Fold change, TM7SF2","10 mg/ml, 24 h, vs control, Affymetrix probe set 11744179_x_at",2.10
same,"Fold change, CLN3","10 mg/ml, 24 h, vs control, Affymetrix probe set 11744874_x_at",3.98
same,"Fold change, POR","10 mg/ml, 24 h, vs control, Affymetrix probe set 11746973_x_at",3.22
same,"Fold change, CLN3","10 mg/ml, 24 h, vs control, Affymetrix probe set 11747203_x_at",2.97
same,"Fold change, PPP2R1A","10 mg/ml, 24 h, vs control, Affymetrix probe set 11747739_a_at",2.33
same,"Fold change, PPP2R1A","10 mg/ml, 24 h, vs control, Affymetrix probe set 11747740_x_at",2.66
same,"Fold change, TM7SF2","10 mg/ml, 24 h, vs control, Affymetrix probe set 11748279_s_at",2.46
same,"Fold change, POR","10 mg/ml, 24 h, vs control, Affymetrix probe set 11748368_x_at",3.37
same,"Fold change, CLN3","10 mg/ml, 24 h, vs control, Affymetrix probe set 11748869_a_at",3.24
same,"Fold change, CLN3","10 mg/ml, 24 h, vs control, Affymetrix probe set 11748870_x_at",3.33
same,"Fold change, EBP","10 mg/ml, 24 h, vs control, Affymetrix probe set 11749332_x_at",2.22
same,"Fold change, COL4A3BP","10 mg/ml, 24 h, vs control, Affymetrix probe set 11749683_a_at",2.62
same,"Fold change, DHCR24","10 mg/ml, 24 h, vs control, Affymetrix probe set 11751337_a_at",2.11
same,"Fold change, DHCR24","10 mg/ml, 24 h, vs control, Affymetrix probe set 11751338_x_at",2.31
same,"Fold change, PLA2G15","10 mg/ml, 24 h, vs control, Affymetrix probe set 11751383_a_at",2.52
same,"Fold change, G6PD","10 mg/ml, 24 h, vs control, Affymetrix probe set 11752486_a_at",3.12
same,"Fold change, CLN3","10 mg/ml, 24 h, vs control, Affymetrix probe set 11753053_x_at",3.08
same,"Fold change, PLA2G15","10 mg/ml, 24 h, vs control, Affymetrix probe set 11755396_a_at",3.26
same,"Fold change, CLN3","10 mg/ml, 24 h, vs control, Affymetrix probe set 11756016_x_at",2.80
same,"Fold change, HTRA2","10 mg/ml, 24 h, vs control, Affymetrix probe set 11756421_x_at",2.15
same,"Fold change, POR","10 mg/ml, 24 h, vs control, Affymetrix probe set 11757517_x_at",2.16
same,"Fold change, COL4A3BP","10 mg/ml, 24 h, vs control, Affymetrix probe set 11758133_s_at",2.04
same,"REadj2, CYP51A1///LRRD1",[1],2314.08
same,"REadj2, DHCR7",[1],1204.72
same,"REadj2, HMGCS1",[1],1284.34
same,"REadj2, HSD17B7",[1],166.42
same,"REadj2, MVD",[1],530.60
same,"REadj2, SC5D",[1],537.03
same,"REadj2, SREBF1",[1],456.21
same,"REadj2, G6PD","relative expression adjusted to detection limit (<20), 10 mg/ml, 24 h, Affymetrix probe set 11716292_a_at",438.70
same,"REadj2, G6PD","relative expression adjusted to detection limit (<20), 10 mg/ml, 24 h, Affymetrix probe set 11716293_x_at",290.47
same,"REadj2, INSIG1","relative expression adjusted to detection limit (<20), 10 mg/ml, 24 h, Affymetrix probe set 11716338_a_at",1272.02
same,"REadj2, INSIG1","relative expression adjusted to detection limit (<20), 10 mg/ml, 24 h, Affymetrix probe set 11716339_a_at",1678.67
same,"REadj2, EBP","relative expression adjusted to detection limit (<20), 10 mg/ml, 24 h, Affymetrix probe set 11717859_a_at",1008.77
same,"REadj2, HTRA2","relative expression adjusted to detection limit (<20), 10 mg/ml, 24 h, Affymetrix probe set 11726630_a_at",252.64
same,"REadj2, TM7SF2","relative expression adjusted to detection limit (<20), 10 mg/ml, 24 h, Affymetrix probe set 11744179_x_at",62.22
same,"REadj2, TM7SF2","relative expression adjusted to detection limit (<20), 10 mg/ml, 24 h, Affymetrix probe set 11748279_s_at",100.08
same,"REadj2, EBP","relative expression adjusted to detection limit (<20), 10 mg/ml, 24 h, Affymetrix probe set 11749332_x_at",812.08
same,"REadj2, DHCR24","relative expression adjusted to detection limit (<20), 10 mg/ml, 24 h, Affymetrix probe set 11751337_a_at",176.26
same,"REadj2, DHCR24","relative expression adjusted to detection limit (<20), 10 mg/ml, 24 h, Affymetrix probe set 11751338_x_at",345.60
same,"REadj2, PLA2G15","relative expression adjusted to detection limit (<20), 10 mg/ml, 24 h, Affymetrix probe set 11751383_a_at",103.53
same,"REadj2, G6PD","relative expression adjusted to detection limit (<20), 10 mg/ml, 24 h, Affymetrix probe set 11752486_a_at",220.41
same,"REadj2, PLA2G15","relative expression adjusted to detection limit (<20), 10 mg/ml, 24 h, Affymetrix probe set 11755396_a_at",177.48
same,"REadj2, HTRA2","relative expression adjusted to detection limit (<20), 10 mg/ml, 24 h, Affymetrix probe set 11756421_x_at",227.59
